Assay results taken from EPA's ToxValDB 9.5 (doi:10.2903/j.efsa.2014.3742).
≈ marks a conversion by molar mass, not a printed value.

Assays:
Folsomia candida = conditions: chronic/long-term
Tagia sp. = conditions: for LC50: acute
Oncorhynchus mykiss = conditions: for LC50: acute, duration: 96 hours, mortality; for NOEC: chronic/long-term
Oryctolagus sp. = conditions: reproduction developmental; morphology
Apis mellifera = conditions: acute, mortality
Daphnia magna = conditions: chronic/long-term; duration: 21 days
Colinus virginianus = conditions: acute; oral; mortality

Q: `c1nc[nH]n1` [1H-1,2,4-Triazole] was tested. Which NOEC (Folsomia candida) did it give?
A: 1.8 mg/kg

Q: And the LC50 (Tagia sp.)?
A: > 1000 mg/kg

Q: What about the NOEC (Tagia sp.; chronic/long-term) of the same compound?
A: ≤ 1 mg/kg

Q: What about the LC50 (Oncorhynchus mykiss) of the same compound?
A: 498 mg/L (≈ 7.21 mM)

Q: What about the NOEC (Oncorhynchus mykiss; duration: 28 days, other) of the same compound?
A: 3.2 mg/L

Q: Which NOAEL (Oryctolagus sp.) does the source give for `Nc1ncn[nH]1` [Amitrole] here?
A: 3 mg/kg-day

Q: And the LD50 (Apis mellifera; dermal)?
A: > 100 µg/piece

Q: What about the LD50 (Apis mellifera; oral, unspecified) of the same compound?
A: > 152 µg/piece

Q: And the NOEC (Daphnia magna)?
A: 0.32 mg/L

Q: What about the NOEC (Anas platyrhynchos; reproductive, duration: 15 months, morphology) of the same compound?
A: 16 mg/kg-day

Q: And the LC50 (Anas platyrhynchos; short-term, duration: 5 days, oral, feed, mortality)?
A: > 829 mg/kg

Q: And the LC50 (Rattus norvegicus; acute, mortality)?
A: 5000 mg/kg

Q: What about the NOAEL (Rattus norvegicus; reproduction developmental) of the same compound?
A: 0.9 mg/kg-day

Q: What about the NOAEL (Rattus norvegicus; reproduction developmental, morphology) of the same compound?
A: 0.12 mg/kg-day

Q: What about the NOAEL (Rattus norvegicus; subchronic, duration: 90 days, oral, histopathology: neoplastic) of the same compound?
A: 0.1 mg/kg-day

Q: And the LD50 (Colinus virginianus)?
A: > 2150 mg/kg

Q: And the LC50 (Tagia sp.; duration: 14 days, mortality)?
A: > 448 mg/kg

Q: And the LC50 (Oncorhynchus mykiss)?
A: > 1000 mg/L

Q: And the NOEC (Oncorhynchus mykiss; duration: 21 days)?
A: 100 mg/L
